Calls of active or inactive are those of the source.
Legend:
[1] = target: Lysosomal acid glucosylceramidase (Homo sapiens, UniProt P04062); experiment: Dose response cell-based high throughput screening assay to identify enhancers of beta-glucosidase activity. [Related pubchem assays: 784 ]; assay type: functional
[2] = target: Cytochrome P450 2C9 (Homo sapiens, UniProt P11712)
[3] = target: Cytochrome P450 2C19 (Homo sapiens, UniProt P33261); experiment: Cytochrome panel assay with activity outcomes. Panel member name: p450-cyp2c19 Compounds with AC50 equal or less than 10 uM are considered active; assay type: functional; settings: read-out: AC50
Cytochrome P450 2C19, sequence (P33261 whole entry): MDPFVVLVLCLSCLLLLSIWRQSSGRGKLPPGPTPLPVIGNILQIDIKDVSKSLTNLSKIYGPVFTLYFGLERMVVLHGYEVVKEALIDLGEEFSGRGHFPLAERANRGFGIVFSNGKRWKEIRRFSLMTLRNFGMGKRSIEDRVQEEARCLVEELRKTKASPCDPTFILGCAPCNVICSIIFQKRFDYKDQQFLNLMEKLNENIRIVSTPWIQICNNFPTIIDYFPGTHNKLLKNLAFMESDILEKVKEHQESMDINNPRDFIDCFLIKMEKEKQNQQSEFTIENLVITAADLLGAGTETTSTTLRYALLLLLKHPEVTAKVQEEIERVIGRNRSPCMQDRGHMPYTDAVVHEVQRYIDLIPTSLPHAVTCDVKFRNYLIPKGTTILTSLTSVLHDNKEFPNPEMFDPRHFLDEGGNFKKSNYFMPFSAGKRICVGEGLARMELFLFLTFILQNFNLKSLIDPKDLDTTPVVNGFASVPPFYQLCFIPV

[4] = target: T1, Orexin/Hypocretin receptor type 1 (Homo sapiens, UniProt O43613); experiment: Homogeneous Time Resolved Fluorescence (HTRF)-based cell-based high throughput dose response assay for antagonists of the orexin 1 receptor (OX1R; HCRTR1). [Related pubchem assays (depositor defined):AID434989, AID435008, AID463079, AID485270, AID492963, AID492964, AID492965, AID493232, AID504717, AID504718]; assay type: functional
T1 sequence (O43613 whole entry): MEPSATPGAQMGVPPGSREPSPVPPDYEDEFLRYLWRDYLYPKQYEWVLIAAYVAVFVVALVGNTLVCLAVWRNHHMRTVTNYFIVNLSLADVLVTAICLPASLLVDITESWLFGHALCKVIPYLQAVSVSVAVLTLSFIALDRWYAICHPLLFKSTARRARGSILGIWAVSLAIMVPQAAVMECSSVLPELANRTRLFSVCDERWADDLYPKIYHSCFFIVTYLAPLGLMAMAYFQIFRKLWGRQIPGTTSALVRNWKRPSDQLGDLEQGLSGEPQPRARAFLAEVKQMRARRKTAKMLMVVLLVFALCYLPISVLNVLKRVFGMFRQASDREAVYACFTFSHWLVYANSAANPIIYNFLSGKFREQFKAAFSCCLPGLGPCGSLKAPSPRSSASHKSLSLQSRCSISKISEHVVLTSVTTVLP

[5] = A Cell Based Secondary Assay To Explore Cytotoxicity of Compounds that Sensitize Mycobacterium Tuberculosis to Beta-Lactam Antibiotics.; assay type: functional
[6] = test system: CHO-K1; experiment: (§1) Counterscreen for antagonists of the orexin 1 receptor (OX1R; HCRTR1): Homogeneous time resolved fluorescence (HTRF)-based cell-based dose response assay to identify antagonists of the parental CHO-K1 cell line. [Related pubchem assays (depositor defined):AID434989, AID435008, AID463079, AID485270, AID492963, AID492964, AID492965, AID493232, AID504699, AID504701]; assay type: functional; settings: Cricetulus griseus
[7] = as §1, with “Fluorescence-based” for “Homogeneous time resolved fluorescence (HTRF)-based”, “cell-based high throughput” for “cell-based”, “CHO” for “CHO-K1”; assay type: functional
[8] = target: T2, Orexin receptor type 2 (Homo sapiens, UniProt O43614); experiment: Counterscreen assay for antagonists of the orexin 1 receptor (OX1R; HCRTR1): Fluorescence-based cell-based dose response assay for antagonists of the orexin 2 receptor (OX2R; HCRTR2), run by assay provider.; assay type: functional
T2 sequence (O43614 whole entry): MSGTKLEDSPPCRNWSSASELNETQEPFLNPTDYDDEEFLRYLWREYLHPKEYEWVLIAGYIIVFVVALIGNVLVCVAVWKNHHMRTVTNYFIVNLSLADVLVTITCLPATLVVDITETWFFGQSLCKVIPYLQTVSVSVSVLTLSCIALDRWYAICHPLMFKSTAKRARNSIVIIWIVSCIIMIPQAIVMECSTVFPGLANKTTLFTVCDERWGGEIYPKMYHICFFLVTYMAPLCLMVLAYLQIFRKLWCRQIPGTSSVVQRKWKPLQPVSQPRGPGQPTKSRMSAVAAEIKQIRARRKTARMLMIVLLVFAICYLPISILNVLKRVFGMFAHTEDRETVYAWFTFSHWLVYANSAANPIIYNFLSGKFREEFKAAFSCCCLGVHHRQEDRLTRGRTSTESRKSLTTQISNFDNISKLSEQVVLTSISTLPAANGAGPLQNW

[9] = target: T1, Orexin/Hypocretin receptor type 1; experiment: Fluorescence-based cell-based high throughput dose response assay for antagonists of the orexin 1 receptor (OX1R; HCRTR1). [Related pubchem assays (depositor defined):AID434989, AID435008, AID463079, AID485270, AID492963, AID492964, AID492965, AID493232, AID504717, AID504718]; assay type: functional
[10] = target: T2, Orexin receptor type 2; experiment: Counterscreen assay for antagonists of the orexin 1 receptor (OX1R; HCRTR1): Homogeneous Time Resolved Fluorescence (HTRF)-based cell-based dose response assay for antagonists of the orexin 2 receptor (OX2R; HCRTR2), run by assay provider.; assay type: functional
[11] = target: Procathepsin L (Homo sapiens, UniProt P07711)
Procathepsin L, sequence (P07711 whole entry): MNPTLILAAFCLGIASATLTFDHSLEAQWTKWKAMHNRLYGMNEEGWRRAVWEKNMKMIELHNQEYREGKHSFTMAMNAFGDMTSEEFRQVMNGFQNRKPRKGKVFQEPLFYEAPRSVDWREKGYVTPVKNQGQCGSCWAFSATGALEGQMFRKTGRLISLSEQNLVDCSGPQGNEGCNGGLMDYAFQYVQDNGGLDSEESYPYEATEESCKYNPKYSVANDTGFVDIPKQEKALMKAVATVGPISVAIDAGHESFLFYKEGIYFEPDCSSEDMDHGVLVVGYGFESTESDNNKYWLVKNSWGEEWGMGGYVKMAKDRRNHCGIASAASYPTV

[12] = target: Aspartyl aminopeptidase (Plasmodium falciparum 3D7, UniProt Q8I2J3)
[13] = target: T3, Heat shock factor protein 1 (Mus musculus, UniProt P38532); experiment: inhibition of MG132-induced HSE-luciferase signal, confirmation, cell-based, NIH3T3, luminescence, dose retest (AID 2382); assay type: functional;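 also: NIH3T3 fibroblasts with HSF1-driven luciferase reporter stressed by proteasome inhibitor MG132; luminescence from HSF1-driven luciferase expression after 8 hours of MG132 stress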
T3 sequence (P38532 whole entry): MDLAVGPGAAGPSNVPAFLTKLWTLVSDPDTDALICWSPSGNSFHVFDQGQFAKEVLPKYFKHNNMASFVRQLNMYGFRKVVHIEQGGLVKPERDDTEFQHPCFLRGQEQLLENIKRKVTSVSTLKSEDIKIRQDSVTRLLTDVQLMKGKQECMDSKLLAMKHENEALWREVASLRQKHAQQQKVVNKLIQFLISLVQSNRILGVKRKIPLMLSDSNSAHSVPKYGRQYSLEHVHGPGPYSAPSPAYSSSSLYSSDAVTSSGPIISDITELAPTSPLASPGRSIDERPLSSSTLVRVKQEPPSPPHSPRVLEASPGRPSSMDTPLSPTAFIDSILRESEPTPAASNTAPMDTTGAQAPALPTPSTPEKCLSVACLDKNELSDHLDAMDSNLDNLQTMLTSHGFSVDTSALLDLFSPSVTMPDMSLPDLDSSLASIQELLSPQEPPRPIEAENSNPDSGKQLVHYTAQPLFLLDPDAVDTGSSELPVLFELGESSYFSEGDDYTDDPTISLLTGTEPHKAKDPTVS

[14] = target: T4, Calpain-2 catalytic subunit (Sus scrofa, UniProt P43367); experiment: pig calpain II inhibitor potency, dose response, biochemical, fluorogenic peptide substrate (AID 1420); assay type: functional
T4 sequence (P43367 whole entry): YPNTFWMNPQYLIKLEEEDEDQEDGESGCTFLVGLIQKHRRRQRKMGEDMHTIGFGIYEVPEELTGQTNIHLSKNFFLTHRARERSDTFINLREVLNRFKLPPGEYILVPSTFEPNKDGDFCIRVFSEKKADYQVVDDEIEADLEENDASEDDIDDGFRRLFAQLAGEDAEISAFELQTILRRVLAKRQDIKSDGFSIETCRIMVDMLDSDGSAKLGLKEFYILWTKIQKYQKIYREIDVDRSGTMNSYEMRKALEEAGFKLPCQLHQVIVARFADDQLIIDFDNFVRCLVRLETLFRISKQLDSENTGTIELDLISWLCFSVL

[15] = target: T5, Voltage-dependent T-type calcium channel subunit alpha-1H (Homo sapiens, UniProt O95180); experiment: Inhibitors of T-Type Calcium Channels. [Related pubchem assays (depositor defined):AID449739, AID463087, AID489005, AID493041, AID504579, AID504584, AID504619, AID504628]; assay type: functional
T5 sequence (O95180 whole entry): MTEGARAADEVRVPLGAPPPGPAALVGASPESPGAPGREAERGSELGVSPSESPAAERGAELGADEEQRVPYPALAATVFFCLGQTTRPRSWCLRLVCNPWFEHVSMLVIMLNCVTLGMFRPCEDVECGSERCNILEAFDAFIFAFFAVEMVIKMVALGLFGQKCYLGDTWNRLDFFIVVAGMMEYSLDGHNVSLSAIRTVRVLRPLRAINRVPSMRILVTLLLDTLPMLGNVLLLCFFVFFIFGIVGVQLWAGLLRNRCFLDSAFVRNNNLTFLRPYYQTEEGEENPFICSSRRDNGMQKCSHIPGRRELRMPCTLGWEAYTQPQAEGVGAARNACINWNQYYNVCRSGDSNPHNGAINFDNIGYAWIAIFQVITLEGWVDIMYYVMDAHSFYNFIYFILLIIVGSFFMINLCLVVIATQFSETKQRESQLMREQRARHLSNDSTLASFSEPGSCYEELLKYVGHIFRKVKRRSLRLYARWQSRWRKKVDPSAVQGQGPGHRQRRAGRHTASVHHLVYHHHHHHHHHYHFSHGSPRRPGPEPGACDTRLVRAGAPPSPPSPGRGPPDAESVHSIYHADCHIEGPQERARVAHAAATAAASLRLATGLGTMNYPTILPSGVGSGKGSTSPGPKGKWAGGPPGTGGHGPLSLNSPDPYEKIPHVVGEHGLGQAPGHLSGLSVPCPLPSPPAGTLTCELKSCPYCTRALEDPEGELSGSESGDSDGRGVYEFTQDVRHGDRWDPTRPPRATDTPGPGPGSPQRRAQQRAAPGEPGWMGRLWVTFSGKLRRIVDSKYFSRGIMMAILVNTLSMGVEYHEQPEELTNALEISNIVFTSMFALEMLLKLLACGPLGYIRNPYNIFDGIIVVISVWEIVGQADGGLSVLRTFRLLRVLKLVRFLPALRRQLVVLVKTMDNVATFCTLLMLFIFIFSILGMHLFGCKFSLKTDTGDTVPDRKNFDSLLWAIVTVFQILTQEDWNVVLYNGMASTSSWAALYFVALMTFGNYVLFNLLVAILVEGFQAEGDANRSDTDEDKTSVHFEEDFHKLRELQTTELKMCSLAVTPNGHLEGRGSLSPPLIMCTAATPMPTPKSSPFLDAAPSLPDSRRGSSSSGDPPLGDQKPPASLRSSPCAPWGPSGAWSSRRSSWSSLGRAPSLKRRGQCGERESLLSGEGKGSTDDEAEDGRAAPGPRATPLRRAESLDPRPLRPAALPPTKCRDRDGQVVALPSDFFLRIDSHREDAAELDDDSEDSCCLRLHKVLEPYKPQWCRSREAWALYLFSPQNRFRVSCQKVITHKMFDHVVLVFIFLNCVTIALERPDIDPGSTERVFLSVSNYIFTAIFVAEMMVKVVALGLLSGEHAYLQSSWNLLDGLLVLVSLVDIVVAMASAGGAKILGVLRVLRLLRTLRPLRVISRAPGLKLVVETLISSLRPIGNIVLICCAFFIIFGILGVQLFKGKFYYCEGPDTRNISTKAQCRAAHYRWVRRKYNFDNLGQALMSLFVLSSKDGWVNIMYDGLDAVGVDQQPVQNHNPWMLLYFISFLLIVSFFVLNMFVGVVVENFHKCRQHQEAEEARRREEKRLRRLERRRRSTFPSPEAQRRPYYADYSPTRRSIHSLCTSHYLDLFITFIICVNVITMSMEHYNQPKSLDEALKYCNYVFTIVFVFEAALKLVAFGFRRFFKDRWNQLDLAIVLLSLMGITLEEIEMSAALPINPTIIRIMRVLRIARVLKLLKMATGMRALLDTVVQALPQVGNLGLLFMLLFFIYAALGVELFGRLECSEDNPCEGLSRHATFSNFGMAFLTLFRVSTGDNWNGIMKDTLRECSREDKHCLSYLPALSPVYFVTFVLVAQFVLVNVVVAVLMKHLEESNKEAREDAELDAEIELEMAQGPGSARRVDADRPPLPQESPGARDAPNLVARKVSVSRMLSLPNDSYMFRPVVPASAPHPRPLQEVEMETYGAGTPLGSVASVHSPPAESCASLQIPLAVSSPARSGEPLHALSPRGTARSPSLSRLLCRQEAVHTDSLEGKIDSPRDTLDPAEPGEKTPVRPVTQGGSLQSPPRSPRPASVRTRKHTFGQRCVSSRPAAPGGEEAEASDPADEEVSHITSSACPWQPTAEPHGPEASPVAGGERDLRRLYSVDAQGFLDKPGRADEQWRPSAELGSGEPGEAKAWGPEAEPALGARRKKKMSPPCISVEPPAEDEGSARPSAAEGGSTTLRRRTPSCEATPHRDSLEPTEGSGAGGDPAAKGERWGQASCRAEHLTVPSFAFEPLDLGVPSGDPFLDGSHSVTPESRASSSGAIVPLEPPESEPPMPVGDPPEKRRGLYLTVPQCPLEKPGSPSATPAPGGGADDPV

[16] = target: T5, Voltage-dependent T-type calcium channel subunit alpha-1H; assay type: functional
[17] = target: Peroxisome proliferator-activated receptor gamma/Nuclear receptor coactivator 2 (Homo sapiens, UniProt P37231); assay type: functional;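 also: agonist potency for raising coactivator recruitment to the receptor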
[18] = target: Peroxisome proliferator-activated receptor gamma/Nuclear receptor coactivator 3 (Homo sapiens, UniProt P37231); assay type: functional;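 also: agonist potency for raising coactivator recruitment to the receptor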
[19] = target: Peroxisome proliferator-activated receptor gamma/Nuclear receptor coactivator 1 (Homo sapiens, UniProt P37231); assay type: functional;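 also: agonist potency as compounds enhance coactivator SRC-1 recruitment to PPARgamma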
[20] = target: T6, Alkaline phosphatase, tissue-nonspecific isozyme (Homo sapiens, UniProt P05186)
T6 sequence (P05186 whole entry): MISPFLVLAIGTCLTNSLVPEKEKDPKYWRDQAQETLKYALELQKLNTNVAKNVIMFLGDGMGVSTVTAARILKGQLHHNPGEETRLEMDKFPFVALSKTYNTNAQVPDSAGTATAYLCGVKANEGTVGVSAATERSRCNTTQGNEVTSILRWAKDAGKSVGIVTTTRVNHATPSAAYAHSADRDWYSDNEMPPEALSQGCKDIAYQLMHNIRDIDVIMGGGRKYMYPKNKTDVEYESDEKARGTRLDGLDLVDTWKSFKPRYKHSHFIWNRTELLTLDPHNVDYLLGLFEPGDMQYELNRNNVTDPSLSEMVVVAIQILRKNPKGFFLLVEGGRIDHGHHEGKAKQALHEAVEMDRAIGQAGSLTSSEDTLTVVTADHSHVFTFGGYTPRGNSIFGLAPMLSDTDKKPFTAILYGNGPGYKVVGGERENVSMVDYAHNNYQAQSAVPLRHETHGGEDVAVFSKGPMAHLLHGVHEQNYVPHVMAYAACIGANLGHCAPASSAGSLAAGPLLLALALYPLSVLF

[21] = target: T7, Cytochrome P450 1A2 (Homo sapiens, UniProt P05177);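 also: PubChem cytochrome P450 panel assay, CYP1A2 panel member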
T7 sequence (P05177 whole entry): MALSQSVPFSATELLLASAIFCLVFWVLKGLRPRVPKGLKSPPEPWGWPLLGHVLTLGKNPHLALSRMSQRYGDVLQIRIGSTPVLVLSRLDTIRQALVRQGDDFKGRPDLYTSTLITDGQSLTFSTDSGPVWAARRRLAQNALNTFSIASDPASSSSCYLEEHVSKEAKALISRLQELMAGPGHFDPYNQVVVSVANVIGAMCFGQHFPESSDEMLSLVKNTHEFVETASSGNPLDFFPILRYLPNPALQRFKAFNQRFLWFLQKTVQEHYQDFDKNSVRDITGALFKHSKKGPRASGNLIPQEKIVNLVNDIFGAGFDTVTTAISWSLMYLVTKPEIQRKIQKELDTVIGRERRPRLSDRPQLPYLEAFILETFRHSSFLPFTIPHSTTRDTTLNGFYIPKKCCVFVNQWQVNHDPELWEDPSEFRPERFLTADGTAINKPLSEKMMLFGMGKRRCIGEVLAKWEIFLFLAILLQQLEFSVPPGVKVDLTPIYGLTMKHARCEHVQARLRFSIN

[22] = target: Cytochrome P450 2D6 (Homo sapiens, UniProt P10635);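 also: CYP2D6 member of a cytochrome P450 panel assay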
[23] = test system: Vero; experiment: cytotoxicity of synthesized analogs in Vero cells, SAR follow-up, cytotoxicity control for West Nile virus antiviral project, cell-based, set II (AID 2402); assay type: functional; settings: Chlorocebus sabaeus
[24] = test system: Vero; experiment: Vero E6 cell cytotoxicity, SAR follow-up, cytotoxicity control for West Nile virus antiviral project, synthesized analogs (AID 2244); assay type: functional; settings: Chlorocebus sabaeus
[25] = target: Beta-galactosidase (Escherichia coli, UniProt Q8VNN2); assay type: functional
[26] = target: T8, Kappa-type opioid receptor (Homo sapiens, UniProt P41145); assay type: functional
T8 sequence (P41145 whole entry): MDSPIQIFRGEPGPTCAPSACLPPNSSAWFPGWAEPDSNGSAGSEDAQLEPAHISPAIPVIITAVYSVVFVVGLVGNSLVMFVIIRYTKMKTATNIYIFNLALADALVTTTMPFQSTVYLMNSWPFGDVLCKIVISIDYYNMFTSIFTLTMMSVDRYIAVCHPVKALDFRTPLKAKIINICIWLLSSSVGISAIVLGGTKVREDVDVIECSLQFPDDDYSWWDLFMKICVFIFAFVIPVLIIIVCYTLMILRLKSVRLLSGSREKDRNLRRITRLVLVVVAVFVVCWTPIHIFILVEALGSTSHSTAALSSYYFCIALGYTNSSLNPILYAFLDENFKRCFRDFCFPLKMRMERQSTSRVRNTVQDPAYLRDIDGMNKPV

[27] = target: T8, Kappa-type opioid receptor; assay type: functional; remark: listed apart in the source
[28] = target: Intestinal-type alkaline phosphatase (Homo sapiens, UniProt P09923); experiment: Dose Response confirmation of uHTS hits from a small molecule inhibitors of human intestinal alkaline phosphatase via a luminescent assay. [Related pubchem assays (depositor defined):AID2544, AID2574]; assay type: functional

Cytochrome P450 2C9, sequence (P11712 whole entry): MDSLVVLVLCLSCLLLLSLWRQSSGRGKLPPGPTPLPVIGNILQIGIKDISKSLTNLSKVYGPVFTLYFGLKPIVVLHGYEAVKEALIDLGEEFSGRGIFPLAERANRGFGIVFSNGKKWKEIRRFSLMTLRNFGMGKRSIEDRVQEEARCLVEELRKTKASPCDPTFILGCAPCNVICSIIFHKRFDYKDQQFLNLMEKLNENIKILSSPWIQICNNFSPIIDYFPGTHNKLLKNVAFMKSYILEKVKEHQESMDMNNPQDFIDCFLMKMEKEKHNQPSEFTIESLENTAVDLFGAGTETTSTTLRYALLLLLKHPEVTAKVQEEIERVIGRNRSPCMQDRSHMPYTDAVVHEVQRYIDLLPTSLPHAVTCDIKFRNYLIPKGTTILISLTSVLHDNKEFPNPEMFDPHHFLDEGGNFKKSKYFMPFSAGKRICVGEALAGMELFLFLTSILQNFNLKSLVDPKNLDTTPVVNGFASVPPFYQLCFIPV
Lysosomal acid glucosylceramidase, sequence (P04062 whole entry): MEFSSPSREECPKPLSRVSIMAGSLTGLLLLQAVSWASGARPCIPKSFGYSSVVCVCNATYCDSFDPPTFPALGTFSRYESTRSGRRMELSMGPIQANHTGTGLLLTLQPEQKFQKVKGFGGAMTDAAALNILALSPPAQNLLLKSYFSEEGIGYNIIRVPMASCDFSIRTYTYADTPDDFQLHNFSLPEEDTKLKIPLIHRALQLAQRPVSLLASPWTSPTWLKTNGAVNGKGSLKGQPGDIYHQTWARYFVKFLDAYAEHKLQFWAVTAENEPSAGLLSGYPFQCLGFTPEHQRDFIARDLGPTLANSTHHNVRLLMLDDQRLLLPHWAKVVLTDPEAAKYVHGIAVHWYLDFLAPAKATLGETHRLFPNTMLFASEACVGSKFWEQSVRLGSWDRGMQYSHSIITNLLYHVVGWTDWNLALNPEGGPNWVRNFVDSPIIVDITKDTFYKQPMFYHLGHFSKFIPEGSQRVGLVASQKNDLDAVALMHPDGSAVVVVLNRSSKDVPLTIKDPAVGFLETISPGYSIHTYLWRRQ

COc1ccc2c(c1)-c1ccccc1S(=O)(=O)N2C(C)=O
EC50 [1]: > 50 µM (not active) | AC50 [2]: 12.6 µM (inconclusive) | AC50 [3]: 25.1 µM (inconclusive)

CCn1c2ccccc2c2cc(NC(=O)c3cccc(OC)c3OC)ccc21
IC50 [4]: 1.7 µM (active) | CC50 [5]: > 40 µM (active) | IC50 [6]: > 66.2 µM (inactive) | IC50 [7]: > 49.8 µM (inactive) | IC50 [8]: > 88.8 µM (inactive) | IC50 [9]: 3.08 µM (active) | IC50 [10]: > 50 µM (inactive)

COc1cccc(C(=O)NC(=S)Nn2cnnc2)c1OC
IC50 [11]: > 59.6 µM (not active) | IC50 [12]: 2.08 µM (active)

O=C(CCCCCCN1C(=O)c2ccccc2C1=O)N1CCC(c2ccccc2)C1 (configuration not stated)
EC50 [13]: > 195 µM (not active) | IC50 [14]: 7.71 µM (active) | EC50 [15]: 1.81 µM (active) | EC50 [16]: 0.624 µM (active)

COc1ccc2nc(C)cc(SCC(=O)Nc3c(C)cccc3C)c2c1
EC50 [17]: > 79.4 µM (not active) | EC50 [18]: > 79.4 µM (not active) | EC50 [19]: > 79.4 µM (not active) | EC50 [20]: > 100 µM (not active)

COC(=O)CN1C(=O)C2(OCCCO2)c2cc(Br)ccc21
EC50 [1]: > 10 µM (not active)

Cc1ccc(Cl)cc1N1CCN(C(=O)C2(S(=O)(=O)c3ccc(Cl)cc3)CC2)CC1
EC50 [15]: 5.26 µM (active) | EC50 [16]: 0.928 µM (active)

COc1ccc2nc(C)cc(SCC(=O)NNC(=O)COc3ccccc3)c2c1
AC50 [21]: 10 µM (inconclusive) | AC50 [22]: 10 µM (inconclusive) | EC50 [20]: 79.5 µM (not active) | AC50 [2]: 10 µM (inconclusive) | AC50 [3]: 3.55 µM (inconclusive)

Cc1c(Cl)cccc1NC(=O)Nn1cnnc1
IC50 [11]: > 59.6 µM (not active) | IC50 [12]: 1.87 µM (active)

COc1ccc(-c2csc(N(Cc3ccccc3)C(=O)c3ccccc3Cl)n2)cc1
CC50 [23]: > 100 µM (active) | CC50 [24]: > 40 µM (active)

O=C(N/N=C/c1ccccn1)c1ccc([N+](=O)[O-])cc1
EC50 [25]: > 31.5 µM (inactive) | EC50 [13]: > 195 µM (not active) | IC50 [26]: 14.7 µM (active) | IC50 [27]: > 32 µM

CC(/C=N/NC(=O)CCn1nnc2ccccc21)=C\c1ccccc1
IC50 [28]: > 100 µM (inactive)
